ChEMBL document CHEMBL5576135, “Discovery of Indolo[3,2-c]isoquinoline Derivatives as Novel Top1/2 Dual Inhibitors with Orally Efficacious Antitumor Activity and Low Toxicity” (J Med Chem, 2024)
The source made the active and inactive calls. The calls are words filed in the database; no cut-off is given here.

Legend:
[1] = system: MDA-MB-231; experiment: Antiproliferative activity against human MDA-MB-231 cells assessed as inhibition of cell growth incubated for 96 hrs by MTT based ELISA; type: functional; details: MDA-MB-231, 96 h
[2] = system: NCI-H2228; experiment: Antiproliferative activity against human NCI-H2228 cells assessed as inhibition of cell growth incubated for 96 hrs by MTT based ELISA; type: functional; details: NCI-H2228, 96 h
[3] = system: NCI-H1975; experiment: Antiproliferative activity against human NCI-H1975 cells assessed as inhibition of cell growth incubated for 96 hrs by MTT based ELISA; type: functional; details: NCI-H1975, 96 h
[4] = system: NCI-H1650; experiment: Antiproliferative activity against human NCI-H1650 cells assessed as inhibition of cell growth incubated for 96 hrs by MTT based ELISA; type: functional; details: NCI-H1650, 96 h
[5] = system: NCI-H446; experiment: Antiproliferative activity against human NCI-H446 cells assessed as inhibition of cell growth incubated for 96 hrs by MTT based ELISA; type: functional; details: NCI-H446, 96 h
[6] = system: DU-145; experiment: Antiproliferative activity against human DU-145 cells assessed as inhibition of cell growth incubated for 96 hrs by MTT based ELISA; type: functional; details: DU-145, 96 h
[7] = Tmax in ICR mouse at 10 mg/kg,po measured upto 24 hrs by LC-MS/MS analysis; type: ADME, organism-based; details: in vivo
[8] = AUC (0 to t) in ICR mouse at 10 mg/kg,po measured upto 24 hrs by LC-MS/MS analysis; type: ADME, organism-based; details: in vivo
[9] = biological target: T1, DNA topoisomerase 1 (Homo sapiens) (UniProt P11387); experiment: Inhibition of Topoisomerase I (unknown origin) using pBR322 DNA as substrate at 200 uM incubated for 15 mins by EtBr staining based agarose gel electrophoresis method relative to control
T1 sequence (whole entry): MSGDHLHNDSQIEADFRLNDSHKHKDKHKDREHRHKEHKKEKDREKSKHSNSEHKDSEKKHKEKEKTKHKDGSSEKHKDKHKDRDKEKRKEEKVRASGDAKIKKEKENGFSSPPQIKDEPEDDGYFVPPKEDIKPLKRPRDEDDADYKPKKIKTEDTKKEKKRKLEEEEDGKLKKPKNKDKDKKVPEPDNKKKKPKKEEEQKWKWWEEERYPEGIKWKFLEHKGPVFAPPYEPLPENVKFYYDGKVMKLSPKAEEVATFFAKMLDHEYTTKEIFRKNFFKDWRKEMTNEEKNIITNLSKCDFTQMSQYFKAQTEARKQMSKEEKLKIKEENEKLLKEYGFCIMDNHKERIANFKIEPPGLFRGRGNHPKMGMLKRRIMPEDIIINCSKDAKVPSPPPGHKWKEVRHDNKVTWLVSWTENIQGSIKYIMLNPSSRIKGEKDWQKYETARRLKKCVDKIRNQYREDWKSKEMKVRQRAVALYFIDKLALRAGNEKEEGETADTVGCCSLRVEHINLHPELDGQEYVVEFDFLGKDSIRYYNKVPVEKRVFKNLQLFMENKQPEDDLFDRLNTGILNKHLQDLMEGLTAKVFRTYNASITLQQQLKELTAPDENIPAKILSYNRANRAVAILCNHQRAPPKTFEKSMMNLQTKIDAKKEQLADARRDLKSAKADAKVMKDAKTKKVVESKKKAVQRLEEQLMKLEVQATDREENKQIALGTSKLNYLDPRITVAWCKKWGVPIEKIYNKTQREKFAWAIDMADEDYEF

[10] = biological target: T1, DNA topoisomerase 1 (Homo sapiens); experiment: Inhibition of Topoisomerase I (unknown origin) using pBR322 DNA as substrate at 10 uM incubated for 15 mins by EtBr staining based agarose gel electrophoresis method
[11] = system: NCI-H446; experiment: Induction of DNA damage in human NCI-H446 cells assessed as increase in DNA fragments at 8 uM incubated for 48 hrs by comet assay; type: functional, cell-based
[12] = system: NCI-H446; experiment: Induction of DNA damage in human NCI-H446 cells assessed as tail DNA at 8 uM incubated for 48 hrs by comet assay relative to control; type: functional
[13] = system: NCI-H446; experiment: Induction of DNA damage in human NCI-H446 cells assessed as increase in intracellular gamma-H2AX level at 2 to 8 uM incubated for 48 hrs by Western blotting analysis; type: functional, cell-based; details: dose 2-8 µM
[14] = system: NCI-H446; experiment: Induction of cell cycle arrest in human NCI-H446 cells assessed as accumulation of cells at G2/M phase at 1 to 2 uM incubated for 48 hrs by propidium iodide/RNase A staining based flow cytometry; type: functional; details: dose 1-2 µM
[15] = system: NCI-H446; experiment: Induction of cell cycle arrest in human NCI-H446 cells assessed as accumulation of cells at G2/M phase at 2 uM incubated for 48 hrs by propidium iodide/RNase A staining based flow cytometry relative to control; type: functional
[16] = system: NCI-H446; experiment: Induction of apoptosis in human NCI-H446 cells at 8 uM incubated for 48 hrs by Annexin V-FITC/PI staining based flow cytometry relative to control; type: functional
[17] = system: NCI-H446; experiment: Inhibition of colony formation in human NCI-H446 cells at 1 uM incubated for 24 hrs by crystal violet staining based analysis relative to control; type: functional
[18] = system: NCI-H446; experiment: Inhibition of colony formation in human NCI-H446 cells at 2 uM incubated for 24 hrs by crystal violet staining based analysis relative to control; type: functional
[19] = system: NCI-H446; experiment: Inhibition of cell migration in human NCI-H446 cells at 2 uM incubated for 48 hrs by phase-contrast microscopic analysis relative to control; type: functional
[20] = Toxicity in Kunming mouse assessed as change in body weight at 100 mg/kg,po administration for 2 weeks; type: organism-based; details: in vivo, 336 h
[21] = Toxicity in Kunming mouse assessed as change in serum ALT level at 100 mg/kg,po administration for 2 weeks; type: organism-based; details: in vivo, 336 h
[22] = Toxicity in Kunming mouse assessed as change in serum blood urea nitrogen level at 100 mg/kg,po administration for 2 weeks; type: organism-based; details: in vivo, 336 h
[23] = Toxicity in Kunming mouse assessed as morphological change in heart at 100 mg/kg,po administration for 2 weeks; type: organism-based; details: in vivo, 336 h
[24] = Toxicity in Kunming mouse assessed as morphological change in liver at 100 mg/kg,po administration for 2 weeks; type: organism-based; details: in vivo, 336 h
[25] = Toxicity in Kunming mouse assessed as morphological change in kidney at 100 mg/kg,po administration for 2 weeks; type: organism-based; details: in vivo, 336 h
[26] = Toxicity in Kunming mouse assessed as change in organ coefficient of heart at 100 mg/kg,po administration for 2 weeks; type: organism-based; details: in vivo, 336 h
[27] = Toxicity in Kunming mouse assessed as change in organ coefficient of lung at 100 mg/kg,po administration for 2 weeks; type: organism-based; details: in vivo, 336 h
[28] = Toxicity in Kunming mouse assessed as change in organ coefficient of kidney at 100 mg/kg,po administration for 2 weeks; type: organism-based; details: in vivo, 336 h
[29] = biological target: DNA topoisomerase 2-alpha (Homo sapiens) (UniProt P11388); experiment: Inhibition of Topoisomerase 2 (unknown origin) using pBR322 DNA as substrate at 0.5 uM incubated for 15 mins by EtBr staining based agarose gel electrophoresis method
[30] = biological target: DNA topoisomerase 2-alpha (Homo sapiens) (UniProt P11388); experiment: Inhibition of Topoisomerase 2 (unknown origin) using pBR322 DNA as substrate at 10 uM incubated for 15 mins by EtBr staining based agarose gel electrophoresis method

Chain of DNA topoisomerase 2-alpha (Homo sapiens) (P11388 whole entry): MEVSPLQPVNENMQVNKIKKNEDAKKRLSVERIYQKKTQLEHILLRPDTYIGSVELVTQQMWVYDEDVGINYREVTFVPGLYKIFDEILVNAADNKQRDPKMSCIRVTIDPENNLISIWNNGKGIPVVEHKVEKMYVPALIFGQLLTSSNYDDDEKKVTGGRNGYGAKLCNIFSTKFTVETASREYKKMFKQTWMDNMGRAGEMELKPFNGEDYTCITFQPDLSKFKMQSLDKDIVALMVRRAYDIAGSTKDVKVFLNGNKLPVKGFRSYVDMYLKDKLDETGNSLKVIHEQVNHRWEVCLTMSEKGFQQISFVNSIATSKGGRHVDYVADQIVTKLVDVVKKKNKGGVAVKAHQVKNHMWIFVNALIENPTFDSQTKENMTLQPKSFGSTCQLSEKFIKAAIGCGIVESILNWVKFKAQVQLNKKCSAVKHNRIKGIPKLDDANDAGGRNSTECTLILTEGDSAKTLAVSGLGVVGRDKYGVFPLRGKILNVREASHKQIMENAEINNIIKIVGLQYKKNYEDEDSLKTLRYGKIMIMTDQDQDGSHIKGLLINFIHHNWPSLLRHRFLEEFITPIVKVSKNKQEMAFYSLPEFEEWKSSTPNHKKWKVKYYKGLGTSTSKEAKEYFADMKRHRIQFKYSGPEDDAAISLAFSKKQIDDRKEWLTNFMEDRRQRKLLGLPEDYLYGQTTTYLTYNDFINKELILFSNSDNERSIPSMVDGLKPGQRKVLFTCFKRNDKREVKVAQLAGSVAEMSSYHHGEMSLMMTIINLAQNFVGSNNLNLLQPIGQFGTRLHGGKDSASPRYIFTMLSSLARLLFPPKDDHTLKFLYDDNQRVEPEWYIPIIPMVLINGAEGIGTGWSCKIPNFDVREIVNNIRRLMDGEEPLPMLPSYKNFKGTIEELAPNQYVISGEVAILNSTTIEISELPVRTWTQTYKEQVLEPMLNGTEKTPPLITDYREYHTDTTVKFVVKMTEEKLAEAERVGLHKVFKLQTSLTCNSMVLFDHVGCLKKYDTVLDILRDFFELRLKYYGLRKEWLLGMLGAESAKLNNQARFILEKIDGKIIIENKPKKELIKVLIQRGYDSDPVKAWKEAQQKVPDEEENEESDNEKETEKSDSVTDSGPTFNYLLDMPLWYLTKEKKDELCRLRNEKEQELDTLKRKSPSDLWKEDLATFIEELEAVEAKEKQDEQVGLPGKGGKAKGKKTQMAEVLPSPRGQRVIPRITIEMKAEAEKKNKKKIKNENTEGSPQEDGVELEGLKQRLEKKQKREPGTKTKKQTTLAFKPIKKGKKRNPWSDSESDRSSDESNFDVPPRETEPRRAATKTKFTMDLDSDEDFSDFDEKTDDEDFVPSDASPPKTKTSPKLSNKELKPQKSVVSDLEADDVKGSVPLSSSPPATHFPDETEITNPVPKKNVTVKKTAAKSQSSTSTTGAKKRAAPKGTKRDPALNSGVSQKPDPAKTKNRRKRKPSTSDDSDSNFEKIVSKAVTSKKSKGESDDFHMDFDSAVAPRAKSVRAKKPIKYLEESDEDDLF

COc1ccc2c(c1)c1ncc3ccccc3c1n2CCCC(=O)NO
IC50 [1]: 0.55 µM | IC50 [2]: 2.34 µM | IC50 [3]: 0.96 µM | IC50 [4]: 1.02 µM | IC50 [5]: 0.12 µM | IC50 [6]: 0.86 µM | Tmax [7]: 1 h | AUC(0-t) at 24 h [8]: 244 ng·h/mL | inhibition [9]: > 95% | inhibition [10]: Active | Activity [11]: Active | Activity [12]: 54.8% | Activity [13]: Active | Activity [14]: Active | Activity [15]: 60.3% | Activity [16]: 77.5% | inhibition at 1 µM [17]: > 90% | inhibition at 2 µM [18]: > 90% | inhibition at 2 µM [19]: 73.2% | Activity [20]: Non-Toxic | Activity [21]: Non-Toxic | Activity [22]: Non-Toxic | Activity [23]: Non-Toxic | Activity [24]: Non-Toxic | Activity [25]: Non-Toxic | Activity [26]: Non-Toxic | Activity [27]: Non-Toxic | Activity [28]: Non-Toxic | inhibition [29]: Active | inhibition [30]: Active

CN(C)CCCn1c2cc3c(cc2c2ncc4ccccc4c21)OCO3
IC50 [1]: 0.29 µM | IC50 [2]: 0.88 µM | IC50 [3]: 0.74 µM | IC50 [4]: 0.88 µM | IC50 [5]: 0.09 µM | IC50 [6]: 0.52 µM | Tmax [7]: 2 h | AUC(0-t) at 24 h [8]: 2040 ng·h/mL | inhibition [9]: > 95% | inhibition [10]: Active | Activity [11]: Active | Activity [12]: 65.4% | Activity [13]: Active | Activity [14]: Active | Activity [15]: 61.1% | Activity [16]: 95.3% | inhibition at 1 µM [17]: > 90% | inhibition at 2 µM [18]: > 90% | inhibition at 2 µM [19]: 77.1% | Activity [20]: Non-Toxic | Activity [21]: Non-Toxic | Activity [22]: Non-Toxic | Activity [23]: Non-Toxic | Activity [24]: Non-Toxic | Activity [25]: Non-Toxic | Activity [26]: Non-Toxic | Activity [27]: Non-Toxic | Activity [28]: Non-Toxic | inhibition [29]: Active | inhibition [30]: Active
